Data on four compounds can be found in US8530489B2 (Vertex Pharmaceuticals Incorporated, priority 2006, dated 2013).

Assay type in all cases: biochemical
Test [1] deals with T1, PLK3 (S38-A340) (Homo sapiens, UniProt Q9H4B4).
T1 construct: in the presence of 5 nM PLK3 (S38-A340)
As to the kind of experiment: PLK3 Inhibition Assay (radioactive-phosphate incorporation). Particulars: selectivity ratio, PLK3 over PLK1. The protocol: (§1) The compounds of the present invention are evaluated as inhibitors of human PLK kinase using the following assays.
Compounds were screened for their ability to inhibit PLK3 using a radioactive-phosphate incorporation assay. Assays were carried out in a mixture of 25 mM HEPES (pH 7.5), 10 mM MgCl2, and 1 mM DTT. Final substrate concentrations were 75 μM [γ-33P]ATP (60 mCi 33P ATP/mmol ATP, Amersham Pharmacia Biotech/Sigma Chemicals) and 10 μM peptide (SAM68 protein Δ332-443). Assays were carried out at 25° C. in the presence of 5 nM PLK3 (S38-A340). An assay stock buffer solution was prepared containing all of the reagents listed above, with the exception of ATP and the test compound of interest. 30 μL of the stock solution was placed in a 96 well plate followed by addition of 2 μL of DMSO stock containing serial dilutions of the test compound (typically starting from a final concentration of 10 μM with 2-fold serial dilutions) in duplicate (final DMSO concentration 5%). The plate was pre-incubated for 10 minutes at 25° C. and the reaction initiated by addition of 8 μL [γ-33P]ATP (final concentration 75 μM).
The reaction was stopped after 60 minutes by the addition of 100 μL 0.14M phosphoric acid. A multiscreen phosphocellulose filter 96-well plate (Millipore, Cat No. MAPHN0B50) was pretreated with 100 μL 0.2M phosphoric acid prior to the addition of 125 μL of the stopped assay mixture. The plate was washed with 4×200 μL 0.2 M phosphoric acid. After drying, 100 μL Optiphase ‘SuperMix’ liquid scintillation cocktail (Perkin Elmer) was added to the well prior to scintillation counting (1450 Microbeta Liquid Scintillation Counter, Wallac).
(§2) After removing mean background values for all of the data points, Ki(app) data were calculated from non-linear regression analysis of the initial rate data using the Prism software package (GraphPad Prism version 3.0cx for Macintosh, GraphPad Software, San Diego Calif., USA).

Test [2] addresses PLK2 (Homo sapiens, UniProt Q9NYY3). As to the kind of experiment: PLK2 Inhibition Assay (radioactive-phosphate incorporation). The settings on record: selectivity ratio, PLK2 over PLK1. The method, then:
as §1
Compounds were screened for their ability to inhibit PLK2 using a radioactive-phosphate incorporation assay. Assays were carried out in a mixture of 25 mM HEPES (pH 7.5), 10 mM MgCl2, 0.1% BSA, and 2 mM DTT. Final substrate concentrations were 200 μM [γ-33P]ATP (57 mCi 33P ATP/mmol ATP, Amersham Pharmacia Biotech/Sigma Chemicals) and 300 μM peptide (KKKISDELMDATFADQEAK) [SEQ ID:3]. Assays were carried out at 25° C. in the presence of 25 nM PLK2. An assay stock buffer solution was prepared containing all of the reagents listed above, with the exception of ATP and the test compound of interest. 30 μL of the stock solution was placed in a 96 well plate followed by addition of 2 μL of DMSO stock containing serial dilutions of the test compound (typically starting from a final concentration of 10 μM with 2-fold serial dilutions) in duplicate (final DMSO concentration 5%). The plate was pre-incubated for 10 minutes at 25° C. and the reaction initiated by addition of 8 μL [γ-33P]ATP (final concentration 200 μM).
The reaction was stopped after 90 minutes by the addition of 100 μL 0.14 M phosphoric acid. A multiscreen phosphocellulose filter 96-well plate (Millipore, Cat No. MAPHN0B50) was pretreated with 100 μL 0.2M phosphoric acid prior to the addition of 125 μL of the stopped assay mixture. The plate was washed with 4×200 μL 0.2 M phosphoric acid. After drying, 100 μL Optiphase ‘SuperMix’ liquid scintillation cocktail (Perkin Elmer) was added to the well prior to scintillation counting (1450 Microbeta Liquid Scintillation Counter, Wallac).
as §2

Test [3] concerns the target PLK1 (Homo sapiens, UniProt P53350). As to the kind of experiment: PLK1 Inhibition Assay I (radioactive-phosphate incorporation). Particulars: Ki(app); PLK1 Inhibition Assay I or II (table does not say which). The procedure, abridged:
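Ki(app) values came from non-linear regression of initial rates after background subtraction, with phosphopeptide measured by phosphocellulose filter binding and scintillation counting. PLK1 at 2 nM was preincubated with compound (typically from 10 μM, 2-fold dilutions) for 10 min, then run 240 min at 25° C with 350 μM [γ-33P]ATP and 450 μM peptide substrate in HEPES pH 7.5 buffer.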

Sequence of PLK2 (Q9NYY3 whole entry): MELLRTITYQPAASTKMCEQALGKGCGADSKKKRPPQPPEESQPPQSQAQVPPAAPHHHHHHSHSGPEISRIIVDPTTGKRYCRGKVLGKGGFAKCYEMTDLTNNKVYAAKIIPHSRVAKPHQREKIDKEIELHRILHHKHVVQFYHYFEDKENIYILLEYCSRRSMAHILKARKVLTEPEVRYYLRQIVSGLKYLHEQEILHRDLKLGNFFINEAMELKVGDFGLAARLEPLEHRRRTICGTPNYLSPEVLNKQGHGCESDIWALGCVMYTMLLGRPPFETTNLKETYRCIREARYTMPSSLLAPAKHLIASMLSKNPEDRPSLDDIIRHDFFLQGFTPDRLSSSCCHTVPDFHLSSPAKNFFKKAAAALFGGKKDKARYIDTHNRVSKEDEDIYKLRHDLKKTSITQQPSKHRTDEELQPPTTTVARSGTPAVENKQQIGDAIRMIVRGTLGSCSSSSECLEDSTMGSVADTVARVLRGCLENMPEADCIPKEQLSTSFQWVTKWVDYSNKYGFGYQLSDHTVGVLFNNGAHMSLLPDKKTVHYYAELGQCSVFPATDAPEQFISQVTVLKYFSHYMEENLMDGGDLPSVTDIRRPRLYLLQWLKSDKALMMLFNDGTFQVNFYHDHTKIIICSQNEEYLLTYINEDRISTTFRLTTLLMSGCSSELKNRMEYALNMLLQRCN
Sequence of PLK1 (P53350 whole entry): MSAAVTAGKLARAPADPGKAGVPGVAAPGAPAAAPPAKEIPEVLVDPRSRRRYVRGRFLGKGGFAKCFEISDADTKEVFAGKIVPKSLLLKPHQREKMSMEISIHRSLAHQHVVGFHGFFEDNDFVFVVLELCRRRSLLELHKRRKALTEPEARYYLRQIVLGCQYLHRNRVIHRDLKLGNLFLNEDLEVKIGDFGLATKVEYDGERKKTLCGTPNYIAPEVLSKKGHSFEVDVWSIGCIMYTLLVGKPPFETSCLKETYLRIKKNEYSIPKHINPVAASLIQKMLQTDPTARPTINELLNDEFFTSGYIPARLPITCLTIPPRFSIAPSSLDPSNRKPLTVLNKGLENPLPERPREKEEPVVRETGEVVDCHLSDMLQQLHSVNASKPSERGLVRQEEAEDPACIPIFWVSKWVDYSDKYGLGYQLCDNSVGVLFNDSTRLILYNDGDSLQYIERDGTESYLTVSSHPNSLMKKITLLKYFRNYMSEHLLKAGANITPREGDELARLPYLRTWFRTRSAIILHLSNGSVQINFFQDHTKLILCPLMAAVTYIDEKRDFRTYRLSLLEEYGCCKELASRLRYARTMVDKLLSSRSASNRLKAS
T1 sequence (Q9H4B4 58-340 limits assumed): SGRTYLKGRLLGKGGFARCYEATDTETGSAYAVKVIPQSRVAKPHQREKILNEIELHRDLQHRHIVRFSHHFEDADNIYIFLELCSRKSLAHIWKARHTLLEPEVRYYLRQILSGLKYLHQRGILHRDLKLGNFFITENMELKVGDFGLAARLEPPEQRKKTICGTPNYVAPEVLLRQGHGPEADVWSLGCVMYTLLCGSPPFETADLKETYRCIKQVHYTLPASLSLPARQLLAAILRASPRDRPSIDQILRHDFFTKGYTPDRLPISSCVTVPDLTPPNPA

For the compound `CC(Nc1ncc(C#N)c(-c2c[nH]c3ncc(C(F)(F)F)cc23)n1)c1ccc(N[C@@H]2CCNC2)nc1` (stereo partly drawn) [Compound I-272, 2-(1-(6-((R)-pyrrolidin-3-ylamino)pyridin-3-yl)ethylamino)-4-(5-(trifluoromethyl)-1H-pyrrolo[2,3-b]pyridin-3-yl)pyrimidine-5-carbonitrile], in test [1], the “Ki(PLK3)/Ki(PLK1)” value is reported as 14. Besides, the “Ki(PLK2)/Ki(PLK1)” value in test [2] was found to be 67. The Ki in test [3] was below 3 nM.

As for `C[C@H]1CN(c2ccc([C@@H](C)Nc3ncc(C#N)c(-c4c[nH]c5ncc(C(F)(F)F)cc45)n3)cn2)CCN1` [Compound I-273, 2-((R)-1-(6-((S)-3-methylpiperazin-1-yl)pyridin-3-yl)ethylamino)-4-(5-(trifluoromethyl)-1H-pyrrolo[2,3-b]pyridin-3-yl)pyrimidine-5-carbonitrile], in test [1], the “Ki(PLK3)/Ki(PLK1)” value came out at 581. Further, in test [2], the “Ki(PLK2)/Ki(PLK1)” value amounted to 1813. The Ki in test [3] was below 3 nM.

Turning to `CNCCN(C)c1ccc([C@@H](C)Nc2ncc(C#N)c(-c3c[nH]c4ncc(C(F)(F)F)cc34)n2)cn1` [Compound I-275, 2-((R)-1-(6-(methyl(2-(methylamino)ethyl)amino)pyridin-3-yl)ethylamino)-4-(5-(trifluoromethyl)-1H-pyrrolo[2,3-b]pyridin-3-yl)pyrimidine-5-carbonitrile], in test [1], the “Ki(PLK3)/Ki(PLK1)” value came to 919. Also, the “Ki(PLK2)/Ki(PLK1)” value in test [2] is 313. The Ki in test [3] was below 3 nM.

On to `CNCCNc1ccc(C(C)Nc2ncc(C#N)c(-c3c[nH]c4ncc(C(F)(F)F)cc34)n2)cn1` (stereo not drawn) [Compound I-278, 2-(1-(6-(2-(methylamino)ethylamino)pyridin-3-yl)ethylamino)-4-(5-(trifluoromethyl)-1H-pyrrolo[2,3-b]pyridin-3-yl)pyrimidine-5-carbonitrile], for which the “Ki(PLK3)/Ki(PLK1)” value in test [1] turned out to be 142. The “Ki(PLK2)/Ki(PLK1)” value in test [2] came out at 208. Also, the Ki in test [3] is below 3 nM.
